Earlier results as cited in US10485808B2, “Selective progesterone receptor modulators (SPRM) and stabilized estrogen level in patient” (BAYER PHARMA AKTIENGESELLSCHAFT, priority 2017, dated 2019).
Like-named read-outs stand apart in the source and are kept apart here.

Tested on: patients with Uterine Fibroids (UF)
Conditions: cited from earlier work; for Patients with moderate to severe hot flushes: 12-13 weeks of treatment; for Serum estradiol levels after treatment: after 12-13 weeks treatment

CC(=O)O[C@]1(C(C)=O)CC[C@H]2[C@@H]3CCC4=CC(=O)CCC4=C3[C@@H](c3ccc(N(C)C)cc3)C[C@@]21C [Ulipristal acetate]
Patients with moderate to severe hot flushes (5 mg/day): 11%
Serum estradiol levels after treatment (5 mg/day): 64 pg/mL
Amenorrhoea rate (secondary endpoint) (5 mg/day): 75%
Hot flushes of any severity (5 mg): 26%
Patients with moderate to severe hot flushes (10 mg/day): 10%
Serum estradiol levels after treatment (10 mg/day): 61 pg/mL
Amenorrhoea rate (secondary endpoint) (10 mg/day): 89%
Hot flushes of any severity (10 mg): 24%
